Laboratory results from patent US9526680B2, “Method for searching for malodor control agent, malodor control agent, and malodor control method” (Kao Corporation, priority 2010, dated 2016).

Legend:
[1] = Sensory evaluation test of hexanoic acid odor inhibition; type: in vivo; conditions: for Intensity of odor: hexanoic acid odor, malodor alone rated as 5, 0 to 10 points, test substance diluted 100 times with propylene glycol, three panelists; for Inhibition of hexanoic acid odor (in words): sensory test, test substance diluted 100 times with propylene glycol (FIG. 5, Table 4)
Protocol: (§1) Cotton balls were introduced into a glass bottle (Hakuyo Glass Co., Ltd. No. 11, capacity 110 ml), and hexanoic acid diluted 100 times with propylene glycol, nonanoic acid diluted 10 times with propylene glycol, or isovaleric acid diluted 1000 times with propylene glycol, as a malodor, and a test substance were added dropwise in an amount of […] to the cotton balls. The glass bottle was left to stand overnight at room temperature, and the odor molecules were sufficiently volatilized in the glass bottle. A sensory evaluation test was carried out by a panel of three panelists (5 panelists for isovaleric acid), and while the intensity of odor in the case of adding dropwise the malodor alone was rated as 5, the intensity of the malodor in the case of incorporating a test substance was evaluated on the basis of a system of 20 grades from 0 point to 10 points (0.5 points per grade).
Regarding the test substance, florhydral (Givaudan SA), bourgeonal (Givaudan SA), hydroxycitronellal (Givaudan SA, International Flavors & Fragrances, Inc., and the like), 4-isopropylcyclohexanecarbaldehyde (synthesized according to a method described in JP-A-2-188549), 4-(2-methoxyphenyl)-2-methyl-2-butanol (JP-A-9-111281), florosa (Givaudan SA), isocyclocitral (Givaudan SA, International Flavors & Fragrances, Inc., and the like), tripral (International Flavors & Fragrances, Inc.), and Pollenal II (Kao Corp.), which had been diluted 100 times with propylene glycol, were used for hexanoic acid; florhydral that had been diluted 10 times with propylene glycol was used for nonanoic acid; and florhydral that had been diluted 1000 times with propylene glycol was used for isovaleric acid.

[2] = Sensory evaluation test of isovaleric acid odor inhibition; type: in vivo; conditions: test substance diluted 1000 times with propylene glycol, 5 panelists (FIG. 7)
Protocol: as §1, with “grade). […]” for “grade).”

[3] = target: T1, OR51I2 (Homo sapiens, UniProt Q9H344); test: Luciferase reporter gene assay, OR51I2 expressed in HEK293 cells; type: cell-based
T1 construct: expressed in transfected cells; host or cells: HEK293
T1 sequence (Q9H344 1-312): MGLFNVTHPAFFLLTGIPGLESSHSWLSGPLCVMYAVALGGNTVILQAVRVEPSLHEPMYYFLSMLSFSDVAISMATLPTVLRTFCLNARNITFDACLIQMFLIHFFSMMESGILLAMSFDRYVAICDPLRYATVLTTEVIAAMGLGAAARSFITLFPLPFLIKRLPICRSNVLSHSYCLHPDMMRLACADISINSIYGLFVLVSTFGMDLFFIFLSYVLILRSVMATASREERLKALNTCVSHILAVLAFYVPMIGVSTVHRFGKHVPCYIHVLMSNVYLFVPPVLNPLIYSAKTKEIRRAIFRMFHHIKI
Protocol: Cloning of human olfactory receptors was performed based on the sequence information registered in GenBank, through PCR with human genomic DNA female (G1521: Promega) as a template. Each of the genes amplified through PCR was inserted into a pENTR vector (Invitrogen) according to an instruction manual. Then, the gene-inserted vector was digested with NotI and AscI, and the obtained fragments were inserted into NotI and AscI sites located downstream of the Flag-Rho tag sequence in the pME18S vector.
Each of the 350 types of human olfactory receptors was expressed in HEK293 cells. A reaction solution having a composition shown in Table 2 was prepared on a clean bench, and left to stand for 15 minutes. The solution was dispensed to each well of a 96-well plate (BD). Subsequently, […] cells (100 μL, 3×10^5 cells/cm^2) were seeded in each well and cultured for 24 hours in an incubator at 37° C. and under 5% CO2 conditions.
The olfactory receptor expressed in HEK293 cell was conjugated with cell-intrinsic Gas to activate adenylate cyclase, and thereby the level of intracellular cAMP was increased. For the measurement of the response to odor in this study, the luciferase reporter gene assay was used, in which an increase in the amount of intracellular cAMP was monitored by using the emission value originating from firefly luciferase gene (fluc2P-CRE-hygro) as an indicator. Furthermore, a gene product obtained by fusing renilla luciferase gene in the downstream of CMV promoter (hRluc-CMV) was simultaneously introduced, and this was used as an internal standard for correcting an error in the transgenesis efficiency or the number of cells. The medium was removed from the culture prepared in the above-described section 3) by using a Pipetman, and 75 μl of a solution containing an odor substance (1 mM hexanoic acid or 300 μM nonanoic acid) prepared in CD293 medium (Invitrogen) was added thereto. The cells were cultured for 4 hours in a CO2 incubator, and the luciferase gene was sufficiently expressed in the cells. For the measurement of luciferase activity, the measurement was carried out by using a Dual-Glo™ luciferase assay system (Promega) according to the operation manual of the product. A value calculated by dividing the emission value, derived from a firefly luciferase induced by the stimulation with an odor substance, by the emission value in cells that were not-stimulated with an odor substance, was designated as a fold increase, and used as an index of response intensity.
OR2W1, OR10A6, OR51E1, OR51I2, and OR51L1 were respectively expressed in HEK293 cells by the same method as that used in Example 1, and a luciferase assay was carried out. In the luciferase assay, hexanoic acid was used as the odorous substance, and test substances were added together with hexanoic acid. The response of the olfactory receptors to hexanoic acid was measured, and a decrease in the receptor response to the addition of test substances was evaluated.
The inhibition ratios of the receptor response to test substances were calculated as follows. The emission value (Y) obtained from the cells in which the same receptors were introduced but no odor stimulation was conducted, was subtracted from the emission value derived from firefly luciferase (X) induced by odor stimulation with hexanoic acid alone. Similarly, the emission value (Y) obtained from the cells in which no odor stimulation was conducted, was subtracted from the emission value (Z) caused by stimulation with a mixture of hexanoic acid and a test substance. By the following calculation formula, the inhibitory activity of the test substance to receptor response was calculated based on the increment of the emission value (X−Y) caused by stimulation of hexanoic acid alone. Multiple independent experiments were performed in duplicate, and the average of each experiment was obtained. Inhibition ratio (%)={1−(Z−Y)/(X−Y)}×100 […]

[4] = Sensory evaluation test of nonanoic acid odor inhibition; type: in vivo; conditions: test substance diluted 10 times with propylene glycol (FIG. 6)
Protocol: as §1, with “grade). […]” for “grade).”

[5] = Sensory evaluation test of cresol odor inhibition (specificity); type: in vivo; conditions: cresol and test substance each diluted 100 times with propylene glycol (FIG. 8)
Protocol: as §1
In the experiment, cresol diluted 100 times with propylene glycol was used as the malodor, and florhydral diluted 100 times with propylene glycol was used as the test substance.

Row | Inhibition of OR51I2 response to hexanoic acid (in words) ([3]; 1 mM hexanoic acid, test substance 3, 10, 30, 100, 300 μM (FIG. 4)) | Inhibition ratio of OR51I2 response ([3]; response to hexanoic acid, test substance added together with hexanoic acid, HEK293) | Compound | Intensity of odor [1] | Inhibition of hexanoic acid odor (in words) [1] | Inhibition of isovaleric acid odor (in words) [2] | Inhibition of nonanoic acid odor (in words) [4] | Inhibition of cresol odor (in words) [5]
1 | in a concentration-dependent manner | 1 (Inhibition ratio: 50% or higher) | CC(C)c1cccc(C(C)CC=O)c1 (stereo not drawn) [Florhydral, 3-(3-isopropylphenyl)-butyraldehyde] | 1.25 | markedly inhibited | the odors were also inhibited | the odors were also inhibited | not inhibited
2 |  |  | 2,4,6-trimethyl-3-cyclohexene-1-carboxyaldehyde, 3,5,6-trimethyl-3-cyclohexene-1-carboxyaldehyde [Isocyclocitral] | 0.67 | inhibit the hexanoic acid odor |  |  | 
